According to US10954197B2, “Cathepsin-D and angiogenesis inhibitors and compositions thereof for treating breast cancer” (YOGEE'S BIOINNOVATIONS PRIVATE LIMITED, priority 2017, dated 2021):

Structure (SMILES)	melting point [°C]
O=C(CSc1n[nH]c(CNc2ccccc2)n1)Nc1ccc(Cl)c(Cl)c1 [Example 13, N-(3,4-dichlorophenyl)-2-((5-((phenylamino)methyl)-1H-1,2,4-triazol-3-yl)thio)acetamide]	40 to 42
COc1ccc(NC(=O)CSc2n[nH]c(CNc3ccccc3)n2)cc1 [Example 12, N-(4-methoxyphenyl)-2-((5-((phenylamino)methyl)-1H-1,2,4-triazol-3-yl)thio)acetamide]	40 to 42
CC(=O)c1cccc(NC(=O)CSc2n[nH]c(NC(=S)NCc3ccccc3)n2)c1 [Example 18, N-(3-acetylphenyl)-2-((5-(3-benzylthioureido)-1H-1,2,4-triazol-3-yl)thio)acetamide]	40 to 42
Cc1cccc(NCc2nc(SCC(=O)Nc3ccccc3)n[nH]2)c1 [Example 2, N-Phenyl-2-((5-((m-tolylamino)methyl)-1H-1,2,4-triazol-3-yl)thio)acetamide]	40 to 42
COc1ccc(NC(=O)CSc2n[nH]c(CNc3cccc(C)c3)n2)cc1 [Example 5, N-(4-methoxyphenyl)-2-((5-((m-tolylamino)methyl)-1H-1,2,4-triazol-3-yl)thio)acetamide]	40 to 42
Cc1cccc(NCc2nc(SCC(=O)Nc3cc(C(F)(F)F)ccc3Cl)n[nH]2)c1 [Example 8, N-(2-chloro-5-(trifluoromethyl)phenyl)-2-((5-((m-tolylamino)methyl)-1H-1,2,4-triazol-3-yl)thio)acetamide]	40 to 42
COc1cc(NC(=O)CSc2n[nH]c(CNc3ccccc3)n2)cc(OC)c1 [Example 14, N-(3,5-dimethoxyphenyl)-2-((5-((phenylamino)methyl)-1H-1,2,4-triazol-3-yl)thio)acetamide]	40 to 42
O=C(CSc1n[nH]c(CNc2ccccc2)n1)Nc1ccccc1 [Example 9, N-phenyl-2-((5-((phenylamino)methyl)-1H-1,2,4-triazol-3-yl)thio)acetamide]	40 to 42
O=C(CSc1n[nH]c(CNc2ccccc2)n1)Nc1cccc(F)c1 [Example 10, N-(3-fluorophenyl)-2-((5-((phenylamino)methyl)-1H-1,2,4-triazol-3-yl)thio)acetamide]	40 to 42
O=C(CSc1n[nH]c(NC(=O)NCc2ccccc2)n1)Nc1ccc([N+](=O)[O-])cc1 [Example 19, 2-((5-(3-benzylureido)-1H-1,2,4-triazol-3-yl)thio)-N-(4-nitrophenyl)acetamide]	40 to 42
CC(=O)c1cccc(NC(=O)CSc2n[nH]c(NC(=O)NCc3ccccc3)n2)c1 [Example 20, N-(3-acetylphenyl)-2-((5-(3-benzylureido)-1H-1,2,4-triazol-3-yl)thio)acetamide]	40 to 42
Cc1cc([N+](=O)[O-])ccc1NC(=O)CSc1n[nH]c(NC(=O)NCc2ccccc2)n1 [Example 21, 2-((5-(3-benzylureido)-1H-1,2,4-triazol-3-yl)thio)-N-(2-methyl-4-nitrophenyl)acetamide]	40 to 42
COc1ccc(Cl)cc1NC(=O)CSc1n[nH]c(CNc2cccc(C)c2)n1 [Example 1, N-(5-chloro-2-methoxyphenyl)-2-((5-((m-tolylamino)methyl)-1H-1,2,4-triazol-3-yl)thio)acetamide]	40 to 42
Cc1cccc(NCc2nc(SCC(=O)Nc3cccc(F)c3)n[nH]2)c1 [Example 3, N-(3-fluorophenyl)-2-((5-((m-tolylamino)methyl)-1H-1,2,4-triazol-3-yl)thio)acetamide]	40 to 42
Cc1cccc(NCc2nc(SCC(=O)Nc3ccc(Cl)c(Cl)c3)n[nH]2)c1 [Example 6, N-(3,4-dichlorophenyl)-2-((5-((m-tolylamino)methyl)-1H-1,2,4-triazol-3-yl)thio)acetamide]	40 to 42
COc1cc(NC(=O)CSc2n[nH]c(CNc3cccc(C)c3)n2)cc(OC)c1 [Example 7, N-(3,5-dimethoxyphenyl)-2-((5-((m-tolylamino)methyl)-1H-1,2,4-triazol-3-yl)thio)acetamide]	40 to 42
O=C(CSc1n[nH]c(CNc2ccccc2)n1)Nc1cccc(Br)c1 [Example 11, N-(3-bromophenyl)-2-((5-((phenylamino)methyl)-1H-1,2,4-triazol-3-yl)thio)acetamide]	40 to 42
